{"source": "ChEMBL document CHEMBL1201862", "about": "“PubChem BioAssay data set” (2004)", "key": {"[1]": {"experiment": "A549 cell cytotoxicity, dose response, cytotoxicity control, plate reader, cherry-pick, antagonist series (AID 743412)", "assay_type": "functional, cell-based"}, "[2]": {"experiment": "HepG2 cell cytotoxicity, dose response, cytotoxicity control, plate reader, cherry-pick, antagonist series (AID 743416)", "assay_type": "functional, cell-based"}, "[3]": {"experiment": "LGR2 antagonists, dose response, cell-based, HEK293, CRE-luciferase reporter, cherry pick, set 2 (AID 743343);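 also: transfected cells were stimulated with diluted bursicon conditioned medium after compound addition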", "assay_type": "functional"}, "[4]": {"experiment": "MC4R antagonists, dose response, counter-screen for LGR2 antagonist project, cell-based, plate reader, cherry pick (AID 743444);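 also: transfected HEK 293 cells stimulated with alpha-MSH peptide; potency of inhibitors of the alpha-MSH evoked signal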", "assay_type": "functional"}, "[5]": {"target": "T1, Oxysterols receptor LXR-beta (Homo sapiens, UniProt P55055)", "T1 sequence (P55055 whole entry)": "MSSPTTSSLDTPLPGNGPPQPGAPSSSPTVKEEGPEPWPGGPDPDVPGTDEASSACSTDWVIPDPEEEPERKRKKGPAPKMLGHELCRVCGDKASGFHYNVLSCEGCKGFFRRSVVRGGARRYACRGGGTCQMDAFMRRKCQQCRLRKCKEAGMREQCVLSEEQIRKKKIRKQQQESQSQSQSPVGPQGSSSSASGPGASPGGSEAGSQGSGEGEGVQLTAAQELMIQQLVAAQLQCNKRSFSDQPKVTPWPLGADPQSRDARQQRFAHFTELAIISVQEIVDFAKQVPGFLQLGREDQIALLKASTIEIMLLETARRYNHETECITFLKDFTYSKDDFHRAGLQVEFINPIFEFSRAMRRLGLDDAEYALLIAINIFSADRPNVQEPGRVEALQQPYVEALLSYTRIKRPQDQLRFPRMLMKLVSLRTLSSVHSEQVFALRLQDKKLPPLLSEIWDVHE", "assay_type": "functional, cell-based"}, "[6]": {"experiment": "HEK293 cell cytotoxicity, dose response, cytotoxicity control, plate reader, cherry-picked samples (AID 743446)", "assay_type": "functional, cell-based"}, "Caspase-3": {"target": "T2, Caspase-3 (Homo sapiens, UniProt P42574)", "T2 sequence (P42574 whole entry)": "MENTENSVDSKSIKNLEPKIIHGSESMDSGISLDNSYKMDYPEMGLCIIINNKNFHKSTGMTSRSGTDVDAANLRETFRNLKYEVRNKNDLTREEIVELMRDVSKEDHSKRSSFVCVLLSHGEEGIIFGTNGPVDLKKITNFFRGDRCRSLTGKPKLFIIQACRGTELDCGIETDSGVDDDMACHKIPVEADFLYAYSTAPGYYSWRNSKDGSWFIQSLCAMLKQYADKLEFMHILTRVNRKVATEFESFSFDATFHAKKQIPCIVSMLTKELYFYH", "assay_type": "functional"}, "[7]": {"target": "T3, Sentrin-specific protease 7 (Homo sapiens, UniProt Q9BQF6)", "T3 sequence (Q9BQF6 whole entry)": "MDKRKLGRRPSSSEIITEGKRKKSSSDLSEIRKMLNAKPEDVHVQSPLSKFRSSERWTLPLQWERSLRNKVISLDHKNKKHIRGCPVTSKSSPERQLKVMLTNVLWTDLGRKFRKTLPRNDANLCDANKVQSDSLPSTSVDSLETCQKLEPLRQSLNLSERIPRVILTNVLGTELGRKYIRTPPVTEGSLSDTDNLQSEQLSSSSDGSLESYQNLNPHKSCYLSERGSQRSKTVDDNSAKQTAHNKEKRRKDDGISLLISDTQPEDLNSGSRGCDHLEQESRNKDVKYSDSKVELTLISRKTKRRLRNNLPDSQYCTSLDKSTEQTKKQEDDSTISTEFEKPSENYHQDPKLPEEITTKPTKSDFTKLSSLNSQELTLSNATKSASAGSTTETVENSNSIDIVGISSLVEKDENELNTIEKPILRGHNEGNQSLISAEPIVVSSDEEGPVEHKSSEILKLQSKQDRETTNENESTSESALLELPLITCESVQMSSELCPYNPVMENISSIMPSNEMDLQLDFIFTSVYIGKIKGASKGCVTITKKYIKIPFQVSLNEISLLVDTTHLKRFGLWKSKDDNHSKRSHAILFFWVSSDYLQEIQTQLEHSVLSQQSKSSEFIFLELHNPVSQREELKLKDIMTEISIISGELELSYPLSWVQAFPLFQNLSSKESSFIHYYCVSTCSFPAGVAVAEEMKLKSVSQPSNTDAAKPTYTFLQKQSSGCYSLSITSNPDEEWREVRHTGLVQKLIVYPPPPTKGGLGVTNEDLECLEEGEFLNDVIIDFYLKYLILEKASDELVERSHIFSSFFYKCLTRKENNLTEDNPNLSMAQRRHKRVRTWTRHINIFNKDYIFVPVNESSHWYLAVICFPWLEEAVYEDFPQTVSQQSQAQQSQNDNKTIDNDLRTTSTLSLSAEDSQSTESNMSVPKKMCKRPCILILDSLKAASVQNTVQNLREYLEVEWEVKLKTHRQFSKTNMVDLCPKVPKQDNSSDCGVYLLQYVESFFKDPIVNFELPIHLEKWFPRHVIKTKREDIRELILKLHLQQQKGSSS", "assay_type": "functional"}, "[8]": {"target": "T4, Sentrin-specific protease 6 (Homo sapiens, UniProt Q9GZR1)", "T4 sequence (Q9GZR1 whole entry)": "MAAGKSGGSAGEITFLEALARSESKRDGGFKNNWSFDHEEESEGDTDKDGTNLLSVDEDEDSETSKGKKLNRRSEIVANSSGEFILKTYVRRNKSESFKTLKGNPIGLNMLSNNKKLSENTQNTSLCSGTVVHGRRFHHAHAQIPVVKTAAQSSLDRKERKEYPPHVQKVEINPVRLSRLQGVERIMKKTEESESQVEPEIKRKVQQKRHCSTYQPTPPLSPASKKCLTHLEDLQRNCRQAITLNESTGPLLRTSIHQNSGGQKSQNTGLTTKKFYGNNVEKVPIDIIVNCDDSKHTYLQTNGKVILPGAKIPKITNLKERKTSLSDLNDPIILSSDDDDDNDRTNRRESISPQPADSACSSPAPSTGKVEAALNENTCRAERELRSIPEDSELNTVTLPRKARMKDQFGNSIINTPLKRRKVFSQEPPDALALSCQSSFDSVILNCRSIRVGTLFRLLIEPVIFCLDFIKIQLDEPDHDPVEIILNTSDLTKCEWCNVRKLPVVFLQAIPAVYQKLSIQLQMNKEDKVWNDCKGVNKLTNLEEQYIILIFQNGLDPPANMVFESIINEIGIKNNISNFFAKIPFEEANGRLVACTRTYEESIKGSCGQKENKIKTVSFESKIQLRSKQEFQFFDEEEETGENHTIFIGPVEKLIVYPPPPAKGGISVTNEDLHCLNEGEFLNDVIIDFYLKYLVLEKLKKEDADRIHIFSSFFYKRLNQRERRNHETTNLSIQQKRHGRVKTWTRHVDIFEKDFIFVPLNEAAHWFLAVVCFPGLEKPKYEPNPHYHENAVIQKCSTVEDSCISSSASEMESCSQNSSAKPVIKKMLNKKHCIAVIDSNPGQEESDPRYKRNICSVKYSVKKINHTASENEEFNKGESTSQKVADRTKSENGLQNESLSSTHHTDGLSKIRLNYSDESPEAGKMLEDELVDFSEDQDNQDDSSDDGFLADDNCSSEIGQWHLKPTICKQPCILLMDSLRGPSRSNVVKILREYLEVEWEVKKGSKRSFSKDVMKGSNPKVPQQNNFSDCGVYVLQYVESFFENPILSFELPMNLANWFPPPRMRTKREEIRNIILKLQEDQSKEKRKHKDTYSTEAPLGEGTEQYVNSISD", "assay_type": "functional"}, "[9]": {"target": "T5, Sentrin-specific protease 8 (Homo sapiens, UniProt Q96LD8)", "T5 sequence (Q96LD8 whole entry)": "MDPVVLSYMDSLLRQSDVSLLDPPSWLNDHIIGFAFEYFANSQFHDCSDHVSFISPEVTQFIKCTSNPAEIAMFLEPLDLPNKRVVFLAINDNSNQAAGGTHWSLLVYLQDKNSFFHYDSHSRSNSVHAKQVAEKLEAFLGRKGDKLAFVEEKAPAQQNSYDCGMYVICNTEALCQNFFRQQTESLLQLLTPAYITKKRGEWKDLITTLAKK", "assay_type": "functional"}, "[10]": {"tested_on": "Streptococcus sp. 'group A'", "experiment": "growth inhibition of control SK(-) GAS strain, dose response, counter-screen for streptokinase expression inhibitor project, luminescence, kanamycin, BacTiterGlo, confirmation (AID 1900)", "assay_type": "functional, organism-based"}, "Streptokinase A": {"target": "T6, Streptokinase A (Streptococcus pyogenes serotype M1, UniProt P10520)", "T6 sequence (P10520 whole entry)": "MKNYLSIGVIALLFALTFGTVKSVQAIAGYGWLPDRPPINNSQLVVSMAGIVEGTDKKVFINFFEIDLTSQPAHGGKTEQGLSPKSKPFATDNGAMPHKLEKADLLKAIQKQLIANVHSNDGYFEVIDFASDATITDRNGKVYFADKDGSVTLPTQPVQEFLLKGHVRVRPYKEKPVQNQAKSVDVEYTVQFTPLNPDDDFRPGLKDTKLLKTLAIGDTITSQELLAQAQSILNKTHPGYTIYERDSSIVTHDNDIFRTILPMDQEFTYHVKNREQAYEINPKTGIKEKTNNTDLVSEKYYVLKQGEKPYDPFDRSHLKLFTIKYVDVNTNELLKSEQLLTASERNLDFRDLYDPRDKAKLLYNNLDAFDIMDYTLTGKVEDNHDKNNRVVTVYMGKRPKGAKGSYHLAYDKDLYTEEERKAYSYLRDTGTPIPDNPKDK", "experiment": "S. pyogenes streptokinase expression inhibitors, potency, dose response, plasminogen activation absorbance, OD405 (AID 1914);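 also: secreted streptokinase activity via plasminogen activation per viability signal from cell pellet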", "assay_type": "functional, Streptococcus pyogenes M1 GAS"}, "Streptococcus": {"tested_on": "Streptococcus", "experiment": "Group A Streptococcus viability loss, dose response, counter-screen for streptokinase expression inhibitor project, luminescence, BacTiterGlo (AID 1915);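 also: potency for reduction of bacterial viability or growth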", "assay_type": "functional, organism-based"}, "[11]": {"target": "Disintegrin and metalloproteinase domain-containing protein 17 (Homo sapiens, UniProt P78536)", "sequence (P78536 whole entry, the tested form may be a part)": "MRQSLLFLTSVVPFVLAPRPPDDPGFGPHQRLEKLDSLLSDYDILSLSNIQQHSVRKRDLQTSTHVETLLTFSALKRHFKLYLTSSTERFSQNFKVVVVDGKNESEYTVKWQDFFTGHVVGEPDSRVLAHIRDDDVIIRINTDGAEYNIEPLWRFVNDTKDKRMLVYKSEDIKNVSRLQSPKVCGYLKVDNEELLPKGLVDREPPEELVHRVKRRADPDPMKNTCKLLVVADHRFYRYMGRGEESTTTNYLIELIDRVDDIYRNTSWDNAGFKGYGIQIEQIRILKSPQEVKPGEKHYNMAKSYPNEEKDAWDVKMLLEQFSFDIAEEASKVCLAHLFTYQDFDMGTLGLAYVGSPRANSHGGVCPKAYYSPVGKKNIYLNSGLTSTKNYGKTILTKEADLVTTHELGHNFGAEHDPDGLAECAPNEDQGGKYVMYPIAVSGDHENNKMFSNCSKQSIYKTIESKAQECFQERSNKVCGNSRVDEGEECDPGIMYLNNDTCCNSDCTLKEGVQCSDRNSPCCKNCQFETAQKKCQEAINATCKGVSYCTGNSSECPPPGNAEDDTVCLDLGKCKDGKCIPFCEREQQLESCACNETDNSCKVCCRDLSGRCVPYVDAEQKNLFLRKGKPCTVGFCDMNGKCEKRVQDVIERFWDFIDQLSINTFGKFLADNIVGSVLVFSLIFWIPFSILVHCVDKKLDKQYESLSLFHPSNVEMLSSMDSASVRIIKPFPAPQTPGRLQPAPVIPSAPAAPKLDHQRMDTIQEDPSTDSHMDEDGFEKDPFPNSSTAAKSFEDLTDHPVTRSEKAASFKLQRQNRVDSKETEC", "experiment": "ADAM17 protease inhibitors, dose response, counter-screen for ADAM10 exosite inhibitor project, biochemical, quenched FRET substrate (AID 743253)"}, "fMet-Leu-Phe receptor": {"target": "T7, fMet-Leu-Phe receptor (Homo sapiens, UniProt P21462)", "T7 sequence (P21462 whole entry)": "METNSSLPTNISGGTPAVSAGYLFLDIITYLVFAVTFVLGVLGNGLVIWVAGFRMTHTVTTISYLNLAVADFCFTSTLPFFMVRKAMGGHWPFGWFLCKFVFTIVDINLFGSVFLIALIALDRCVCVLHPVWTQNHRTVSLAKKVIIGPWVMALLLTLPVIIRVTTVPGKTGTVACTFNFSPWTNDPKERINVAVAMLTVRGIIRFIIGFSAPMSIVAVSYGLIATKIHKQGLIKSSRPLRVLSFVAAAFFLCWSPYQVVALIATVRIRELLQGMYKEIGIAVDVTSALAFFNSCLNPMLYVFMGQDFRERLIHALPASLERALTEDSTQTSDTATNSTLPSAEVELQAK", "experiment": "FPR ligands, dose response (AID 519)", "assay_type": "functional"}, "Paired box protein Pax-8": {"target": "Paired box protein Pax-8 (Homo sapiens, UniProt Q06710)", "sequence (Q06710 whole entry)": "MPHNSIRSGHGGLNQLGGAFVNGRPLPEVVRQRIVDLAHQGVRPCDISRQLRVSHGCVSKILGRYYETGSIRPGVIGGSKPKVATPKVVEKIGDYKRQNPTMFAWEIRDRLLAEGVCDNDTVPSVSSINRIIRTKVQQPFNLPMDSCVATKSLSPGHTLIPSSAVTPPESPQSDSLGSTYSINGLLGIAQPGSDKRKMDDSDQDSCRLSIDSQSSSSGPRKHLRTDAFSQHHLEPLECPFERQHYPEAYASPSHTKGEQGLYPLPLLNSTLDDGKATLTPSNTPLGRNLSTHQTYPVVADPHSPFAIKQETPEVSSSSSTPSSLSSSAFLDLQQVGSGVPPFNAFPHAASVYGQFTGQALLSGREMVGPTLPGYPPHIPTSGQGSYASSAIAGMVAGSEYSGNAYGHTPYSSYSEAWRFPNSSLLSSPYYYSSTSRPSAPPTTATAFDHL", "experiment": "inhibitors of PAX8-driven TPO luciferase reporter, dose response, RMG-I cells, cherry-pick (AID 687027);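 also: luciferase reporter driven by Pax8 target thyroperoxidase promoter measured by SteadyGlo luminescence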", "assay_type": "functional, cell-based"}, "[12]": {"experiment": "NIH:OVCAR-3 ovarian cancer cell cytotoxicity, dose response, PAX8 inhibitor project, plate reader, dry powder samples (AID 743044)", "assay_type": "functional, cell-based"}, "[13]": {"experiment": "cytotoxicity in OVCAR8 ovarian cancer cells, dose response, PAX8 project, cell-based, plate reader, dry powder samples (AID 743197)", "assay_type": "functional", "settings": "OVCAR-8"}}, "note": "Active and inactive are the calls of the source."}
{"compound": "NC(=O)c1ccsc1NC(=O)c1ccc2c(c1)CCCC2", "values": [{"measurement": "AC50", "setting": "[1]", "result": "14.1 µM (active)"}, {"measurement": "AC50", "setting": "[2]", "result": "42.4 µM (active)"}, {"measurement": "AC50", "setting": "[3]", "result": "9.99 µM (active)"}, {"measurement": "AC50", "setting": "[4]", "result": "15.2 µM (active)"}, {"measurement": "EC50", "setting": "[5]", "result": "> 67.5 µM (inactive)"}, {"measurement": "AC50", "setting": "[6]", "result": "31.4 µM (active)"}, {"measurement": "EC50", "setting": "cells", "result": "> 67.5 µM (inactive)"}]}
{"compound": "NC(=O)c1c(NC(=O)c2ccccc2)sc2c1CCC2", "values": [{"measurement": "IC50", "setting": "Caspase-3", "result": "27.7 µM (active)"}, {"measurement": "IC50", "setting": "[7]", "result": "7.52 µM (active)"}, {"measurement": "IC50", "setting": "[8]", "result": "> 100 µM (inactive)"}, {"measurement": "IC50", "setting": "[9]", "result": "> 100 µM (inactive)"}, {"measurement": "EC50", "setting": "[5]", "result": "> 67.5 µM (inactive)"}, {"measurement": "EC50", "setting": "cells", "result": "> 67.5 µM (inactive)"}]}
{"compound": "CCc1ccc(NC(=O)c2ccc(F)c(S(=O)(=O)NCC3COc4ccccc4O3)c2)cc1", "note": "(stereo unspecified)", "values": [{"measurement": "EC50", "setting": "[10]", "result": "10.7 µM (active)"}, {"measurement": "EC50", "setting": "Streptokinase A", "result": "35.2 µM (active)"}, {"measurement": "EC50", "setting": "Streptococcus", "result": "18.4 µM (active)"}, {"measurement": "IC50", "setting": "[11]", "result": "> 69.5 µM (inactive)"}]}
{"compound": "CC1=C(C#N)C(c2ccc3ncccc3c2)C(C#N)=C(C)N1", "values": [{"measurement": "Ki", "setting": "fMet-Leu-Phe receptor", "result": "> 66.7 µM (inactive)"}]}
{"compound": "C[C@@H]1CN([C@H](C)CO)C(=O)c2cc(NC(=O)Nc3ccc(F)cc3)ccc2O[C@@H](C)CCCCO[C@H]1CN(C)C(=O)Nc1ccc(C(F)(F)F)cc1", "values": [{"measurement": "AC50", "setting": "Paired box protein Pax-8", "result": "5.23 µM (active)"}, {"measurement": "AC50", "setting": "[12]", "result": "35 µM (active)"}, {"measurement": "AC50", "setting": "[13]", "result": "39.3 µM (active)"}]}
